Source: paper PMC6789573, “Phosphonic Acid Analogues of Phenylglycine as Inhibitors of Aminopeptidases: Comparison of Porcine Aminopeptidase N, Bovine Leucine Aminopeptidase, Tomato Acidic Leucine Aminopeptidase and Aminopeptidase from Barley Seeds” (Pharmaceuticals, 2019)
Each block holds one molecule with its values, some of them ahead of it.

Tests used:
[1] = molecular target: aminopeptidase from barley seeds; assay: Inhibition of aminopeptidase from barley seeds (L-Leu-pNa hydrolysis, absorbance at 405 nm); format: biochemical, barley (Hordeum vulgare L.); conditions: for Ki / Barley Seed AP Ki + SD: racemic compounds, apparent Ki ± SD, 50 mM Tris-HCl pH 8.0, 37 °C, substrate L-Leu-pNa, in = inactive at a concentration of 1 mM; for Ki: read-out: Barley Seed AP Ki + SD; for inhibitory action: barley enzyme
Procedure: Aminopeptidase from barley seeds (Hordeum vulgare L.) was isolated and purified based on the procedure described previously. The following steps were used: (i) ammonium sulfate precipitation, (ii) gel chromatography (Sephadex G-25, Sephacryl HR 300), followed by (iii) ion chromatography (DEAE—Sepharose). The molecular mass of the extracted enzyme was ~58 kDa. Because of the low stability of the concentrated enzyme solution, it was prepared directly before each kinetic study.
(§1) The activity of pAPN (KM = 0.52 mM) was determined as described in the literature. The activity of aminopeptidase from barley seeds was determined at 37 °C in 50 mM Tris-HCl, pH 8.0, containing 50 mM NaCl and 10 mM β-mercaptoethanol using substrate L-leucine-p-nitroanilidine (L-Leu-pNa) dissolved in DMSO. The kinetics parameters of the purified enzyme were measured for L-Leu-pNa at ten final concentrations (ranging from 0.1 to 1.0 mM) and being repeated two times. The KM value of barley seeds aminopeptidase was determined by using the Lineweaver–Burk weighted regression method (see Table S7 and Plot 1 in the Supplementary Information).
The assay mixture of the aminopeptidase from barley seeds, totaling 1.095 mL, contained 50 mM Tris-HCl buffer (pH 8.0) with 50 mM NaCl and 10 mM β-mercaptoethanol, 0.025 mL of the substrate L-Leu-pNa dissolved in DMSO (used in 0.4–0.1 mM range of the final concentration), 0.05 mL of varying concentrations of the potential inhibitor (dependent on the potency of the compound), and 0.02 mL enzyme (0.030 mg of protein).
(§2) The progress of the enzymatic reaction for both enzymes was measured at 37 °C for 10 min and was monitored spectrophotometrically (UV-VIS Spectrophotometer, JASCO V-730) by following the change in absorbance at 405 nm (formation of p-nitroaniline). The extinction coefficient for pNa was 9620 M^−1cm^−1.
(§3) Inhibition constants were determined considering four substrate concentrations and five concentrations of each inhibitor, with each measurement being repeated at least twice.
(§4) The rate of enzymatic reaction was studied following the reaction progress (changes in absorbance of L-Leu-pNa over time). Kinetics constants, namely Ki and IC50, and the type of the inhibition were determined using Lineweaver–Burk, Dixon, and Hanes–Wolf procedures. For each parameter, relative errors were calculated.
The progress of the enzymatic reactions was monitored spectrophotometrically (UV-VIS Spectrophotometer JASCO V-730) by following the change in absorbance at 405 nm (formation of p-nitroanilide). The extinction coefficient for L- […]
The kinetic parameters (KM and Vmax) for aminopeptidase from barley seeds were determined by using the Lineweaver–Burk (L-B) weighted regression method. The measured KM value was 0.21 mM ± 0.14 and was used to determine the inhibitory constants of the all evaluated inhibitors.
Table S7. The kinetic parameters characterizing activity of the isolated aminopeptidase from barley seeds. […]
Lineweaver-Burk regression
Plot S1. Graphical determination of the KM value for aminopeptidase from barley seeds by using Lineweaver-Burk: unweighted (blue line) and weighted (red line) regression method.

[2] = molecular target: T1, porcine aminopeptidase N (pAPN) (Sus scrofa, UniProt P15145); assay: Inhibition of porcine kidney aminopeptidase N (L-Leu-pNa hydrolysis, absorbance at 405 nm); format: biochemical; conditions: for Ki / pAPN Ki + SD: racemic compounds, apparent Ki ± SD, 50 mM potassium phosphate pH 7.2, 37 °C, substrate L-Leu-pNa, in = inactive at a concentration of 1 mM; for inhibitory action: pAPN
T1 construct: Microsomal leucine aminopeptidase (APN, EC 3.4.11.2) from porcine kidney was purchased from Sigma Aldrich; purchased Sigma Aldrich; host or cells: porcine kidney (tissue-derived)
T1 sequence (P15145 1-963): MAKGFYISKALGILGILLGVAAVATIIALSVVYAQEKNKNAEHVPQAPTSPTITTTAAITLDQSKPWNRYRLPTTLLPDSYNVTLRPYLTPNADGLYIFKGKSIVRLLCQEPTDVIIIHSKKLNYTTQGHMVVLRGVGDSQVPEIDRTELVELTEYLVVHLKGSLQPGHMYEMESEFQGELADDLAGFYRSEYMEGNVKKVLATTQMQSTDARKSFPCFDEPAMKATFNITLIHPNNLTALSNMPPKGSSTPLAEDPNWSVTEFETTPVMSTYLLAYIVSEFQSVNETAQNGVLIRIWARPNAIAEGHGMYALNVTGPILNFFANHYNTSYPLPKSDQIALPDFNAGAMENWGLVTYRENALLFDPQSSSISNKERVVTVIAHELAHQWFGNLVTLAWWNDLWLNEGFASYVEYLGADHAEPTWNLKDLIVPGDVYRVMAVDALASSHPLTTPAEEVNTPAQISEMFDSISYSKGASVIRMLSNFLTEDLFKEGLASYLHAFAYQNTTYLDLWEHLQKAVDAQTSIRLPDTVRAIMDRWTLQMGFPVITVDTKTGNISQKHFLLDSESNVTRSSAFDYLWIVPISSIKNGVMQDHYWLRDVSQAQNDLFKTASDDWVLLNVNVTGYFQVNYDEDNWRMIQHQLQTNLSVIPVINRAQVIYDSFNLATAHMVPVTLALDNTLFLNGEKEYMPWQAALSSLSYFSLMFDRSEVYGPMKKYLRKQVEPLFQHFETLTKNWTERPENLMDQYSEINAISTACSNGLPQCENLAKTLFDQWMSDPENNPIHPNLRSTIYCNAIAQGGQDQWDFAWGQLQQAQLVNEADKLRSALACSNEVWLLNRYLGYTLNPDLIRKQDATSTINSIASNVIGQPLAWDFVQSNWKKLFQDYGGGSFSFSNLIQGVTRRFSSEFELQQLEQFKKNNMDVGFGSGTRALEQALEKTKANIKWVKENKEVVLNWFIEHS
Procedure: Microsomal leucine aminopeptidase (APN, EC 3.4.11.2) from porcine kidney was purchased from Sigma Aldrich. It was applied directly in kinetic measurements after dissolving in 50 mM potassium phosphate (pH 7.2). Such a solution should be stored in 4 °C for no longer than 2 days.
as §1
The assay mixture of the pAPN, totaling 1.01 mL, contained 50 mM potassium phosphate buffer (pH 7.2), 0.025 mL of the substrate L-Leu-pNa dissolved in DMSO (used in 0.4–0.1 mM range of the final concentration), 0.05 mL of the potential inhibitor in reaction buffer (in a concentration dependent on the potency of the compound), and 0.01 mL of the enzyme solution (4µg/mL final concentration).
as §2, §3, §4

SMILES: NC(c1ccc(Cl)cc1F)P(=O)(O)O (centres unmarked) [Compound 9]
Ki [1]: 818 ± 43 µM

SMILES: CC(C)C[C@H](N)C(=O)Nc1ccc([N+](=O)[O-])cc1 [L-Leu-pNa, L-leucine-p-nitroanilidine, reference compound]
Km ([1]; substrate of barley seed aminopeptidase, Lineweaver-Burk weighted regression, 37 °C, pH 8.0): 210 µM
Km ([2]; substrate of pAPN): 520 µM

Ki [1]: 686 ± 70 µM
Ki [2]: 56.3 ± 2.2 µM
SMILES: NC(c1ccc(C(F)(F)F)cc1)P(=O)(O)O (centres unmarked) [Compound 10]

SMILES: NC(c1ccc(Cl)c(F)c1)P(=O)(O)O (centres unmarked) [Compound 8]
Ki [1]: 103 ± 10 µM

SMILES: NC(c1cccc(F)c1)P(=O)(O)O (centres unmarked) [Compound 2]
Ki [1]: 311 ± 27 µM
Ki [2]: 122 ± 10 µM

inhibitory action [1]: practically no inhibitory action
Barley Seed AP Ki + SD [1]: in ^2
inhibitory action [2]: practically no inhibitory action
pAPN Ki + SD [2]: in ^2
SMILES: NC(c1c(F)c(F)c(F)c(F)c1F)P(=O)(O)O (centres unmarked) [Compound 13]

Barley Seed AP Ki + SD [1]: in ^2
pAPN Ki + SD [2]: in ^2
SMILES: NC(c1c(F)cc(F)cc1F)P(=O)(O)O (centres unmarked) [Compound 6]

SMILES: NC(c1ccc(F)cc1F)P(=O)(O)O (centres unmarked) [Compound 4]
Ki [1]: 1420 ± 83 µM

inhibitory action [1]: practically no inhibitory action
Barley Seed AP Ki + SD [1]: in ^2
inhibitory action [2]: practically no inhibitory action
pAPN Ki + SD [2]: in ^2
SMILES: NC(c1ccc(C(F)(F)F)cc1F)P(=O)(O)O (centres unmarked) [Compound 12]

Ki [1]: 1030 ± 73 µM
Ki [2]: 164 ± 7.7 µM
SMILES: NC(c1cc(F)cc(C(F)(F)F)c1)P(=O)(O)O (centres unmarked) [Compound 11]

SMILES: NC(c1ccc(F)c(Cl)c1)P(=O)(O)O (centres unmarked) [Compound 7]
Ki [1]: 62.1 ± 2.3 µM

SMILES: NC(c1ccc(F)c(F)c1)P(=O)(O)O (centres unmarked) [Compound 5]
Ki [1]: 549 ± 54 µM

SMILES: NC(c1ccc(F)cc1)P(=O)(O)O (centres unmarked) [Compound 3]
Ki [1]: 1100 ± 57 µM

SMILES: NC(c1ccc(O)cc1F)P(=O)(O)O (centres unmarked) [Compound 14]
Barley Seed AP Ki + SD [1]: in ^2

SMILES: NC(c1ccccc1F)P(=O)(O)O (centres unmarked) [Compound 1]
Ki [2]: 232 ± 22 µM
